The subject of test [1] is ribosome on the mRNA (PURExpress in vitro protein synthesis kit). Description: Toe-printing assay. The note with it: for Position of ribosome stalling in toe-print: 100 μM thiostrepton, 50 μM clindamycin. The test is classed as biochemical.
Test [2] concerns ribosomes translating 2XErmBL mRNA (RTS 100 E. coli HY Kit). Description: Disome formation assay. The test is classed as biochemical, Escherichia coli. The conditions noted are these: 20 μM erythromycin, positive control.

On to `CCC[C@@H]1C[C@@H](C(=O)N[C@@H]([C@H]2O[C@H](SC)[C@H](O)[C@@H](O)[C@H]2O)[C@H](C)Cl)N(C)C1` [clindamycin], for which the “Position of ribosome stalling in toe-print” value in test [1] is “ribosomes accumulated at the AUG codon”.

Turning to `CC[C@H]1OC(=O)[C@H](C)[C@@H](O[C@H]2C[C@@](C)(OC)[C@@H](O)[C@H](C)O2)[C@H](C)[C@@H](O[C@@H]2O[C@H](C)C[C@H](N(C)C)[C@H]2O)[C@](C)(O)C[C@@H](C)C(=O)[C@H](C)[C@@H](O)[C@]1(C)O` [erythromycin], the “Disome formation (translation arrest)” value in test [2] is given as “generating the expected disome peaks”.

On to `C=C(NC(=O)C(=C)NC(=O)c1csc(C2=N[C@@H]3c4csc(n4)[C@H]4NC(=O)c5csc(n5)[C@H]([C@](C)(O)[C@@H](C)O)NC(=O)[C@H]5CSC(=N5)/C(=C/C)NC(=O)[C@H]([C@@H](C)O)NC(=O)c5csc(n5)[C@]3(CC2)NC(=O)[C@H](C)NC(=O)C(=C)NC(=O)[C@H](C)NC(=O)[C@H]([C@@H](C)CC)N[C@@H]2C=Cc3c([C@H](C)O)cc(nc3[C@H]2O)C(=O)O[C@@H]4C)n1)C(N)=O` [thiostrepton], for which the “Position of ribosome stalling in toe-print” value in test [1] is reported as “ribosomes accumulated at the AUG codon”.

RRIRPRPPRLPRPRPR [Bac7(1–16)]: the “Toeprint for ribosomes stalled during initiation” value in test [1] (100 μM peptide, signal for full-length mRNA became stronger, similar to edeine) is reported as “became weaker”.

For the origin of these results see publication PMC4797285 (Nucleic Acids Research, 2016).
